Source: patent publication US20150099800A1, “NOVEL LIPASE INHIBITORS, REPORTER SUBSTRATES AND USES THEREOF” (Northeastern University, priority 2012, published 2015)
“Also recorded” adds a separate entry of the source. Where two headings read alike, the source gives them in different places.

What was measured:
[1] = molecular target: T1, rFAAH (Rattus norvegicus, UniProt P97612); assay: rFAAH coumarin substrate fluorescence assay; format: biochemical
T1 construct: His (N); made in house; host or cells: E. coli (cell line provided by the Cravatt group)
T1 sequence (P97612 30-579 limits assumed): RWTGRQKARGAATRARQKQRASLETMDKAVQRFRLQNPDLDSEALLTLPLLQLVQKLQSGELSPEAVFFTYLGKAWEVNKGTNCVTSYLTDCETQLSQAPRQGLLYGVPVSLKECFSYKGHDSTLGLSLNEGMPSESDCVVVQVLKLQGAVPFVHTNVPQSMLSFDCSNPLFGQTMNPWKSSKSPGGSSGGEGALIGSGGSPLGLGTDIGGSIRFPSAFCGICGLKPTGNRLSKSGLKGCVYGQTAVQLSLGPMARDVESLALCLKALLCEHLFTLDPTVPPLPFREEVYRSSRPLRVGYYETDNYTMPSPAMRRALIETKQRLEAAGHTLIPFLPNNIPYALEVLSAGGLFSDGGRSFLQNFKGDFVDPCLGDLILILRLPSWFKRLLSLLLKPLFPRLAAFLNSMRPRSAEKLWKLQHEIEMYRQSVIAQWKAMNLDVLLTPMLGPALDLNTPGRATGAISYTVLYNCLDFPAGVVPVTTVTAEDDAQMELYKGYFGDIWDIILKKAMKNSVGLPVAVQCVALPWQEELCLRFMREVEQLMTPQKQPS

[2] = system: Lipoprotein Lipase (Bacterial); format: biochemical, Pseudomonas sp.
[3] = molecular target: T2, Pancreatic Lipase (Porcine) (Sus scrofa, UniProt P00591); format: biochemical
T2 construct: purchased Sigma L3126
T2 sequence (P00591 1-450): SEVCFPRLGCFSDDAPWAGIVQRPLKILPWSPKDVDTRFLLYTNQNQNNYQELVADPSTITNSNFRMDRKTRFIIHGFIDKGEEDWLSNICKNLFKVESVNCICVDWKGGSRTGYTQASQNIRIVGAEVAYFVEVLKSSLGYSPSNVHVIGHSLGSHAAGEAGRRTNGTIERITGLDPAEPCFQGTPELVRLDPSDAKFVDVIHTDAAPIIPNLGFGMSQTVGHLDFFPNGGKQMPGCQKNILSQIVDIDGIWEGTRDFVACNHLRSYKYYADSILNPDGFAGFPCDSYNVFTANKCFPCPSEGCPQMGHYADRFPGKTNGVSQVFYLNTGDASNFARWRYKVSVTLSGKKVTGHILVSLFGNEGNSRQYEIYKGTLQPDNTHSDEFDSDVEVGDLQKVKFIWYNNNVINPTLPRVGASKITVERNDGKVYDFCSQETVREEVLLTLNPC

[4] = molecular target: T3, hDAGLα (Homo sapiens, UniProt Q9Y4D2)
T3 sequence (Q9Y4D2 1-1042): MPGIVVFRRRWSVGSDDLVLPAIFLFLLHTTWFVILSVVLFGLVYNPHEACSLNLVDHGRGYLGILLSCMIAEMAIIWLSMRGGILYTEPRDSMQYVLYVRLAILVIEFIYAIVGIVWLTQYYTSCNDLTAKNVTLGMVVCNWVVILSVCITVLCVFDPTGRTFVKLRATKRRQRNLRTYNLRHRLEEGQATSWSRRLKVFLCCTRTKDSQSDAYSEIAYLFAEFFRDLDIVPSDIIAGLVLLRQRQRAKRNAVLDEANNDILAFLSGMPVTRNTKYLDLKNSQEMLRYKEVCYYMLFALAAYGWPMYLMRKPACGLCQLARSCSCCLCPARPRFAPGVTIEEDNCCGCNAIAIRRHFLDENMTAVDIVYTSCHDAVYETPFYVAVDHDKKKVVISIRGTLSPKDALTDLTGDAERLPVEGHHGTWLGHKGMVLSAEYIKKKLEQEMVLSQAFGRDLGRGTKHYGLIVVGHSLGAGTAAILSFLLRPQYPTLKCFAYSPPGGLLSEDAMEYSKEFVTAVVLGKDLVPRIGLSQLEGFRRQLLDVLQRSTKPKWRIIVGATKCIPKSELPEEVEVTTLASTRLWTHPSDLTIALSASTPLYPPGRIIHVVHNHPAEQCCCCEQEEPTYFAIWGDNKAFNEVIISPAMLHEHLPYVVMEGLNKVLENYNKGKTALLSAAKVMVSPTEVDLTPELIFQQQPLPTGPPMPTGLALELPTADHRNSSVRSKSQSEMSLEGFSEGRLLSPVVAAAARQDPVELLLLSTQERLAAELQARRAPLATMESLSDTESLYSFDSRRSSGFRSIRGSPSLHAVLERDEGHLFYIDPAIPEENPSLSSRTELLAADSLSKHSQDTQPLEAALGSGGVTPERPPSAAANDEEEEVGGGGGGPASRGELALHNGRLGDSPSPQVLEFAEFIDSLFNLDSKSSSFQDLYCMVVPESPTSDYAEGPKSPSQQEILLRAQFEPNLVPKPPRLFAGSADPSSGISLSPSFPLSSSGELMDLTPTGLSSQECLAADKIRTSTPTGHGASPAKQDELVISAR

[5] = molecular target: T4, mDAGLα (Mus musculus, UniProt Q6WQJ1); assay: Radio-TLC assay with [14C]SAG substrate, mDAGLα
T4 sequence (Q6WQJ1 1-1044): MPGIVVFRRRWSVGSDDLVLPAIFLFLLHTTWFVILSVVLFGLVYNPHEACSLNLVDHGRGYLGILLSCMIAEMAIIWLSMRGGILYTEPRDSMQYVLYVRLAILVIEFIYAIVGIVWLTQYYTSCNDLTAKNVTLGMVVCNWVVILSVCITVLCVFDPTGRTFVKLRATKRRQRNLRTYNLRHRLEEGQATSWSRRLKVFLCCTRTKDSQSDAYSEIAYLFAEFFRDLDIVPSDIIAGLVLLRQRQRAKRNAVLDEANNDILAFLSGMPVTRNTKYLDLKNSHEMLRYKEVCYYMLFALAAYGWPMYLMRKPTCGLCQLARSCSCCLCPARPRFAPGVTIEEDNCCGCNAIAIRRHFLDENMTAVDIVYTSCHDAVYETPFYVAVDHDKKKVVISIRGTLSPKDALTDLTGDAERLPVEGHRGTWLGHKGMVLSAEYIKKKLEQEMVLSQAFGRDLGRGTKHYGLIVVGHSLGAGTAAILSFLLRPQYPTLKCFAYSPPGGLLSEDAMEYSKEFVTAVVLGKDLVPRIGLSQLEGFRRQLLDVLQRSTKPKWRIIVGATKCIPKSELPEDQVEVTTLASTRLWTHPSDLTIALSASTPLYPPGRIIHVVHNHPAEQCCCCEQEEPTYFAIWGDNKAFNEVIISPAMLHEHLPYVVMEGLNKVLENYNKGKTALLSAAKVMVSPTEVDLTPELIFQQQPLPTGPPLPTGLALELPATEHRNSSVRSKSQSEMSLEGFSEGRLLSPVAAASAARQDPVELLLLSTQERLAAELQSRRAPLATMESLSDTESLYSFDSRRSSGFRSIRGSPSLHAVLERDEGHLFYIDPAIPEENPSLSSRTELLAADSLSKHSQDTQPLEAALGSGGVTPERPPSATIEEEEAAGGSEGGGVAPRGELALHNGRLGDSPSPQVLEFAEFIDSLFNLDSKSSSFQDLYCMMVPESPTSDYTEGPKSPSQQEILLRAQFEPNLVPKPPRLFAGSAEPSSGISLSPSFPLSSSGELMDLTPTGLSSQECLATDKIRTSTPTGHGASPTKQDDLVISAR

[6] = molecular target: T5, MAGL (Homo sapiens, UniProt Q99685); assay: hMAGL coumarin substrate fluorescence assay; format: biochemical; set-up: The N-terminal his-tagged full length human monoacylglycerol lipase used; His (N); made in house; host or cells: E. coli
T5 sequence (Q99685 1-303): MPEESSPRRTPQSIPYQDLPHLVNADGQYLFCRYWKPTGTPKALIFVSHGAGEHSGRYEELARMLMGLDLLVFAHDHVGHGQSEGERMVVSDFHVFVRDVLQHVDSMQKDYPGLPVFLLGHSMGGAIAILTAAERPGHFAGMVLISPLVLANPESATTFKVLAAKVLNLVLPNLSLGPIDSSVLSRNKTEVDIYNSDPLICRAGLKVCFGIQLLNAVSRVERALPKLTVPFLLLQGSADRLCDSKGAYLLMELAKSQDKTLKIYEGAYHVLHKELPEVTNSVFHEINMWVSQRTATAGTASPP

[7] = molecular target: T3, hDAGLα; assay: Evaluation of FRET reporter substrates for enzymatic hydrolysis; format: biochemical; set-up: V5; His; expressed in transfected cells; host or cells: HEK293T, transient; crude cell lysate or membrane preparation
Excerpt: Reporter compounds as substrates for hDAGLα activity with HEK293T cell lysates in the presence of 10% DMSO are shown. A) Pyrenyl analogs (17)-(19), (21), and (22) (EX 320 nm, EM 400 nm). B) NBD analog (20) (EX 485 nm, EM 535 nm).
A convenient in vitro fluorometric esterase assay utilizing the BioTek Instruments Synergy™ HT Multi-Mode Microplate 96-well reader was developed that measured nanomolar concentrations of fluorescent reaction product.

[8] = molecular target: T3, hDAGLα; remark: listed apart in the source
[9] = system: DAGL; conditions: cited from earlier work
[10] = system: cannabinoid receptors; conditions: literature; cited from earlier work
[11] = molecular target: T5, MAGL; conditions: cited from earlier work
[12] = system: FAAH; conditions: cited from earlier work

In the case of `CCCCCCCCCCC[C@@H](C[C@@H]1OC(=O)[C@H]1CCCCCC)OC(=O)[C@@H](NC=O)[C@H](C)CC` [Compound 5], the “rFAAH inhibition at 10 μM (%)” value ([1]; 10 μM) is reported as 3%, the “Lipoprotein Lipase (Bacterial) inhibition at 10 μM (%)” value ([2]; 10 μM) is reported as 61% and the “Pancreatic Lipase (Porcine) inhibition at 10 μM (%)” value ([3]; 10 μM) is reported as 98%. The “hDAGLα inhibition at 10 μM (0.05% Triton X-100) (%), FRET” value ([4]; 10 μM) was 99%, the “hDAGLα inhibition at 10 μM detergent free (%), FRET” value ([4]; 10 μM, detergent free) was 92% and the “mDAGLα inhibition at 10 nM (%)” value [5] was 60%. For the same molecule, the “mDAGLα inhibition at 100 nM (%)” value [5] was 61%, the “mDAGLα inhibition at 1000 nM (%)” value [5] was 88% and the “mDAGLα inhibition at 10000 nM (%)” value [5] was 100%. For the same molecule, the “hMAGL inhibition at 10 μM (%)” value [6] was 1%.
With `CCCCCCC[C@H]1OC(=O)[C@H]1CCCCCC` (relative stereo) [Compound 11, cis-3-Hexyl-4-heptyloxetan-2-one] the “Lipoprotein Lipase (Bacterial) inhibition at 10 μM (%)” value ([2]; 10 μM) was 33%.
For “1-(5-Dimethyloxazolinyloxyl)stearoyl-2-pyrenebutanoyl-3-methyl-sn-glycerol [Compound 21]”, the “quality as substrate for enzymatic hydrolysis” value [7] was “poor substrates”.
For `O=S(=O)(F)Cc1ccccc1` [PMSF, phenylmethylsulfonylfluoride], the “Lipoprotein Lipase (Bacterial) inhibition at 10 μM (%)” value [2] is given as under 0%, the “inhibition of hDAGLα in radio-TLC assays” value [8] is given as “poor inhibitors” and the “effect on DAGL activity reported in the literature” value [9] is given as “poor inhibitors; also recorded: not affected”. The “binding to the cannabinoid receptors, previous reports” value [10] was “did not bind”, the “inhibition of MAGL activity reported in the literature” value [11] was “poor inhibitors” and the “inhibition of FAAH activity reported in the literature” value [12] was “poor inhibitors”.
In the case of `CCCCCCCCCCCCCC1CC(=O)O1` (racemic) [Compound 9, 4-Tridecyloxetan-2-one], the “Lipoprotein Lipase (Bacterial) inhibition at 10 μM (%)” value ([2]; 10 μM) is reported as under 0% and the inhibition at 10 µM ([3]; read-out: Pancreatic Lipase (Porcine) inhibition at 10 μM (%)) is reported as 36%.
For `CCCCCCC[C@@H]1OC(=O)[C@H]1CCCCCC` (relative stereo) [Compound 10, trans-3-hexyl-4-heptyloxetan-2-one], the “Lipoprotein Lipase (Bacterial) inhibition at 10 μM (%)” value ([2]; 10 μM) was 67% and the inhibition at 10 µM ([6]; read-out: hMAGL inhibition at 10 μM (%)) was 56%.
In the case of “1-(16-Dimethyloxazolinyloxyl)stearoyl-2-pyrenebutanoyl-3-methyl-sn-glycerol [Compound 22]”, the “quality as substrate for enzymatic hydrolysis” value [7] is reported as “poor substrates”.
For `CCCCCCCCCCCCCCCCS(=O)(=O)F` [n-C16H33SO2F, Palmitylsulfonyl fluoride], the “rFAAH inhibition at 10 μM (%)” value [1] is given as 100^E %, the IC50 ([1]; read-out: rFAAH apparent IC50 (8 pt, 95% confidence)) is given as 6.3 nM and the IC50 ([12]; read-out: IC50 FAAH with radiolabeled N-arachidonoylethanolamine (anandamide) substrate) is given as 7 nM.
In the case of `O=C(Oc1ccc([N+](=O)[O-])cc1)N1CCN(Cc2cccc(Oc3ccccc3)c2)CC1` [JZL195], the “Lipoprotein Lipase (Bacterial) inhibition at 10 μM (%)” value [2] is reported as under 0%, the “Pancreatic Lipase (Porcine) inhibition at 10 μM (%)” value [3] is reported as 43% and the “hDAGLα inhibition at 10 μM detergent free (%), FRET” value [4] is reported as 64, 55° %. For the same molecule, the “hDAGLα inhibition at 10 μM detergent free (%), FRET, marker °” value [4] was 64, 55° % and the “mDAGLα inhibition at 10000 nM (%)” value [5] was 10%.
With `CCCCCCCCCCC[C@@H](C[C@@H]1OC(=O)[C@H]1CCCCCC)OC(=O)[C@@H](NC=O)[C@@H](C)CC` [Compound 4] the “rFAAH inhibition at 10 μM (%)” value ([1]; 10 μM) was 7%, the “Lipoprotein Lipase (Bacterial) inhibition at 10 μM (%)” value ([2]; 10 μM) was 84% and the “Pancreatic Lipase (Porcine) inhibition at 10 μM (%)” value ([3]; 10 μM) was 99%. The “hDAGLα inhibition at 10 μM (0.05% Triton X-100) (%), FRET” value ([4]; 10 μM) was 99%, the “hDAGLα inhibition at 10 μM detergent free (%), FRET” value ([4]; 10 μM, detergent free) was 92% and the “mDAGLα inhibition at 10 nM (%)” value [5] was 69%. The “mDAGLα inhibition at 100 nM (%)” value [5] was 80%, the “mDAGLα inhibition at 1000 nM (%)” value [5] was 96% and the “mDAGLα inhibition at 10000 nM (%)” value [5] was 96%. The “hMAGL inhibition at 10 μM (%)” value [6] was 16%.
